Results taken from US6849645B2, “Method of increased bioavailability of nutrients and pharmaceutical preparations with tetrahydropiperine and its analogues and derivatives” (priority 2000, dated 2005).
Each block holds one compound with its values, some of them ahead of it.

Tests used:
[1] = type: in vitro ADME, mouse
Description: The drug (100 ug/ml) was applied with 0.1% (active sample) or without (control sample) of THP in the donor compartment. Subsequently the absorbencies of the fluid in the receptor compartment for the presence of BMDP and THP were measured in time intervals of 5, 10, 15, 20, 30, 45 and 60 minutes.
Franz diffusion cell was utilized in the experiment. This is an in vitro set-up prepared from the graft of the abdominal skin of mouse to evaluate absorption of drugs and nutrients through the skin. The Franz diffusion cell contains Donor and Receptor compartments. The test drug, BMDP, with or without tetrahydropiperine (Control) was applied on one side of the skin (Donor compartment). The drug's transport to the Receptor side of the skin was estimated by UV method at pre-determined time intervals. […]
The hydrated skin was mounted on Franz diffusion cell with shaved surface facing the donor compartment. […] Absorbance of each sample was measured by UV spectrophotometer at the wavelength of 256 nm. • b. […] Absorbance of each sample was measured by UV spectrophotometer at the wavelength of 256 nm.
UV absorption Spectra of BMDP solutions show absorption at 238 nm when prepared in saline with tween 20 solution. […] Tetrahydropiperine gave absorbance at 228 nm and 275 nm. • 2. The absorbance of tetrahydropiperine was minimum at 256 nm while it was good for BMDP. […]

[2] = tested on: tobacco cut worm, Spodoptera litura F.; assay: whole plant or invertebrate; settings: Spodoptera litura, in Nicotiana tabacum, 48 h, read-out: PERCENT MORTALITY (Mean of 4 replications)
Description: The tetrahydropiperine was tested against tobacco cut worm, Spodoptera litura F. to determine its possible increased kill rate when used with Fenvalerate—a synthetic pyrethroid.
• a. Preparation of test solution—0.5 g of the test product was dissolved in 1 ml of Ethanol and made up to 100 ml in standard volumetric flask using suitable emulsifier. This solution contains 5000 ppm a.i. (0.5 percent). Further, serial dilution was made to get 0.25, 0.125 and 0.0625% of the test product. To each of these test solutions, Fenvalerate was added to get 250 ppm of Fenvalerate a.i. in the final volume. For comparison 0.5 percent of Tetrahydropiperine, Ethanol 1.0 percent solution and 250 ppm a.i. of Fenvalerate was used. • b. Bioassay—Laboratory reared 7 day old larvae of tobacco cut worm, Spodoptera litura were used in the experiment. After a series of preliminary tests the concentrations chosen for the experiment were 0.5, 0.25, 0.125 and 0.0625 percent tetrahydropiperine. Fresh castor leaves were dipped for 30 seconds in above concentrations of test and standard compounds and blank solutions. After proper drying, the treated leaves were transferred to plastic containers. To each container 5 larvae were released. This was repeated four times so as to have 20 larvae for each concentration. Larvae in control set were fed with leaves dipped in water. Observations were recorded for larval mortality after 48 hours of exposure. Results

Earthworms = assay: Albendazole induced anthelmintic activity on earthworms (paralysis and death); type: in vivo, earthworm
Description: An experiment to see how tetrahydropiperine enhances the skin permeability of anthelmintic drugs such as albendazole on intestinal worms was conducted. However, as a preliminary study towards this, tests on earthworms were conducted.
Earthworms were obtained from the Al Ameen College of Pharmacy, Bangalore. Albendazole (Zentel) was obtained from Smith Kline Beecham Pharmaceuticals, Bangalore. The aqueous test solution contained tetrahydropiperine (Tetraperine™, A proprietary product of Sabinsa Corporation, USA) of 0.1% and 0.2% w/v suspended in 0.25% w/v sodium carboxy methyl cellulose.
1. Effect of Albendazole: Earth worms of similar length and weight were divided into three groups of six worms each. […] The time of onset of paralysis was noted and the death of the worms were observed and recorded as above.

[3] = Franz diffusion cell, in vitro transdermal permeation of Forskolin with or without tetrahydropiperine; type: in vitro ADME, rat
Description: In vitro permeation studies of Forskholin, a diterpenoid compound which has various therapeutic effects (Bronchodilation—used in Asthma, prevents platelet aggregation, anti hypertensive, anti glaucoma and anti-inflammatory) was carried out. Fabricated Franz diffusion cells of capacity 67 and 69 ml were used for the study. Freshly excised rat abdominal skin was used for the permeation studies.
Solutions Used in the Study • a) 2.5% Forskolin in methanol. • b) 0.05% Tetrahydropiperine in 2.5% Forskolin in methanol. • c) 0.1% Tetrahydropiperine in 2.5% Forskolin in methanol. Procedure
Freshly excised rat abdominal […] was mounted on the Franz diffusion Cell, the outer layer of the skin facing the donor compartment. The receptor fluid was maintained at 35° C. using a thermostatic magnetic stirrer.
The study was conducted by replacing the medium in the receptor compartment with methanol instead of phosphate buffer. In both the receptor and donor compartment methanol was used as the medium in the permeation studies.
(§1) In the donor compartment 2 ml methanol containing 50 mg of Forskolin and tetrahydropiperine (5% of Forskolin conc.) was taken. Receptor compartment consisted of 69 ml of methanol maintained at 35° C. Permeation study was carried out for a period of 1 hr. Samples were withdrawn at 15, 30 and 60 minutes intervals and the amount of Forskholin present was analyzed by HPLC.
as §1, with “Forskholin” for “Forskolin and tetrahydropiperine (5% of Forskolin conc.)”, “65” for “69”, “hour.” for “hr.”

amount of drug (BMDP) diffused in control [1]: undetectable
SMILES: CCC(=O)OCC(=O)[C@@]1(OC(=O)CC)[C@@H](C)C[C@H]2[C@@H]3CCC4=CC(=O)C=C[C@]4(C)[C@@]3(F)[C@@H](O)C[C@@]21C [BMDP, Betamethasone dipropionate]

SMILES: CC(C)C(C(=O)OC(C#N)c1cccc(Oc2ccccc2)c1)c1ccc(Cl)cc1 (centres unmarked) [Fenvalerate, reference compound]
mortality at 250 ppm [2]: 55%

SMILES: CCCSc1ccc2nc(NC(=O)OC)[nH]c2c1 [Albendazole, reference compound]
Time taken in minutes (Mean ± SEM), Paralysis (Earthworms; Albendazole 0.2% w/v alone): 99.0 ± 3.93 min
time until anthelmintic activity (Earthworms; albendazole 0.1%): > 2 h
time until anthelmintic activity (Earthworms; albendazole 0.2%): ≤ 2 h

Forskolin Release Control ([3]; Forskolin 50 mg in methanol without THP, 15 min): 1.28
Forskolin Release Control ([3]; Forskolin without THP, 30 min): 4.05
Forskolin Release Control ([3]; Forskolin without THP, 60 min): 8.45
SMILES: C=C[C@@]1(C)CC(=O)[C@]2(O)[C@@]3(C)[C@@H](O)CCC(C)(C)[C@@H]3[C@H](O)[C@H](OC(C)=O)[C@@]2(C)O1 [Forskolin, reference compound]
